In the supplement of paper PMC10307832:

How the values were obtained:
Experiment in all cases: relative viability (nuclei count vs DMSO), 5 days (fraction); higher = more cells survive
[1] = compound: COc1cc2nccc(Oc3ccc(NC(=O)C4(C(=O)Nc5ccc(F)cc5)CC4)cc3)c2cc1OC [Cabozantinib] + CS(=O)(=O)N1CCN(Cc2cc3nc(-c4cccc5[nH]ncc45)nc(N4CCOCC4)c3s2)CC1 [Pictilisib] (partner 1 µM)
Method in brief: (§1)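 A single step with final 0.05% Triton X-100, 1% formaldehyde and 1 ug/ml Hoechst fixed the cells and stained nuclei 5 days after treatment. Lung cancer cell lines in 1536-well plates had been treated by pin tool the day after seeding with one drug alone or a fixed anchor-drug dose plus five library-drug doses (not always all listed) in √10 steps, and nuclei were counted on 4× images. Relative viability is the ratio of nuclei in treated wells to nuclei in vehicle wells, taken as the median of duplicate plates.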

[2] = compound: C1=CC(=CC=C1NC(=S)NNC2=C(C=C(C=C2[N+](=O)[O-])C(F)(F)F)[N+](=O)[O-])F [Kobe2602] + C[C@@H](Oc1cc(-c2cnn(C3CCNCC3)c2)cnc1N)c1c(Cl)ccc(F)c1Cl [Crizotinib] (partner 1 µM)
Method in brief: as §1

[3] = compound: C1=CC(=CC=C1NC(=S)NNC2=C(C=C(C=C2[N+](=O)[O-])C(F)(F)F)[N+](=O)[O-])F [Kobe2602] + CC(=O)Nc1cccc(-n2c(=O)n(C3CC3)c(=O)c3c(Nc4ccc(I)cc4F)n(C)c(=O)c(C)c32)c1 [Trametinib] (partner 0.02 µM)
Method in brief: as §1

[4] = compound: COc1cc2nccc(Oc3ccc(NC(=O)C4(C(=O)Nc5ccc(F)cc5)CC4)cc3)c2cc1OC [Cabozantinib] + O=C(c1cc(Cc2n[nH]c(=O)c3ccccc23)ccc1F)N1CCN(C(=O)C2CC2)CC1 [Olaparib] (partner 8 µM)
Method in brief: as §1

| Cell Line | relative viability ([1]; first compound 0.06325 µM) | relative viability ([1]; first compound 0.2 µM) | relative viability ([1]; first compound 0.6325 µM) | relative viability ([1]; first compound 2 µM) | relative viability ([2]; first compound 0.2 µM) | relative viability ([2]; first compound 0.6325 µM) | relative viability ([2]; first compound 2 µM) | relative viability ([2]; first compound 6.325 µM) | relative viability ([2]; first compound 20 µM) | relative viability ([3]; first compound 0.2 µM) | relative viability ([3]; first compound 0.6325 µM) | relative viability ([3]; first compound 6.325 µM) | relative viability ([3]; first compound 20 µM) | relative viability ([4]; first compound 0.02 µM) | relative viability ([4]; first compound 0.06325 µM) | relative viability ([4]; first compound 0.2 µM) | relative viability ([4]; first compound 0.6325 µM) | relative viability ([4]; first compound 2 µM) | relative viability ([1]; first compound 0.02 µM) | relative viability ([3]; first compound 2 µM) |
| --- | --- | --- | --- | --- | --- | --- | --- | --- | --- | --- | --- | --- | --- | --- | --- | --- | --- | --- | --- | --- |
| LCLC-97TM1 | 0.2 | 0.152 | 0.296 | 0.32 | 0.405 | 0.336 | 0.242 | 0.372 | 0.282 | 0.184 | 0.186 | 0.207 | 0.257 | 0.483 | 0.492 | 0.332 | 0.342 | 0.407 | – | – |
| LU99A | 0.335 | 0.299 | 0.33 | 0.346 | 0.557 | 0.601 | 0.571 | 0.607 | 0.641 | 0.546 | 0.647 | 0.534 | 0.593 | 0.304 | 0.258 | 0.283 | 0.281 | 0.261 | 0.248 | 0.571 |
| NCI-H1299 | 0.924 | 0.953 | 0.876 | 0.733 | 0.922 | 0.938 | 0.93 | 0.952 | 0.925 | – | – | – | – | 0.969 | 0.988 | 0.964 | 0.971 | 1.09 | 0.961 | – |
| NCI-H1355 | 0.442 | 0.453 | 0.432 | 0.526 | 1.04 | 1.12 | 0.747 | 0.952 | 0.957 | 0.441 | 0.464 | 0.415 | 0.43 | 0.748 | 0.747 | 0.775 | 0.771 | 0.714 | 0.49 | 0.369 |
| HARA | 0.417 | 0.508 | 0.474 | 0.429 | 1.05 | 1.01 | 1.05 | 1.24 | 0.981 | 0.846 | 0.636 | 0.771 | 0.752 | 0.794 | 1.07 | – | 0.978 | 0.635 | 0.315 | 0.627 |
| LXF-289 | 0.727 | 0.783 | 0.69 | 0.693 | 0.789 | 0.826 | 0.826 | 0.792 | 0.791 | 0.665 | 0.658 | 0.691 | 0.62 | 1.13 | 1.22 | 1.06 | 0.979 | 1.07 | 0.74 | 0.663 |
| 201T | 0.715 | 0.656 | 0.709 | 0.71 | 1.07 | 1.02 | 1.04 | 1.02 | 1.1 | 0.711 | 0.715 | 0.771 | 0.677 | 0.909 | 0.893 | 0.832 | 0.842 | 0.832 | 0.688 | 0.741 |
